Laboratory results reported in publication PMC7699892, “Repositioned Drugs for Chagas Disease Unveiled via Structure-Based Drug Repositioning” (International Journal of Molecular Sciences, 2020).

What was measured:
[1] = system: T. cruzi; parameters: method as in per drug in column Reference of Table 2; conditions: class of literature evidence of trypanocidal activity; ref per drug in Table 2; cited from earlier work; further: key: ? indicates unknown activity; + indicates indirect evidence of activity; ++ indicates direct evidence of activity
[2] = system: T. cruzi blood trypomastigote (INC-5 strain); assay: ex vivo evaluation against blood trypomastigotes, INC-5 strain; assay type: cell-based; conditions: Trypanosoma cruzi; ex vivo, INC-5 strain, 24 h at 4 °C; read-out: T.cruzi blood trypomastigote IC50 INC-5
From the text: (§1) The high-priority hit drugs were subjected to experimental validation in vitro, ex vivo, and in vivo, together with a cytotoxicity assay. Ninoa and INC-5 strains of T. cruzi were used in this study. The Ninoa strain was obtained in 1986 by xenodiagnoses from an acute case of Chagas’ disease in Oaxaca, Mexico, whereas the INC-5 strain was obtained in 1997 from a chronic case of Chagas’ disease in a person in Guanajuato, Mexico.
(§2) Ex vivo evaluation of different FDA-approved drugs against Trypanosoma cruzi blood trypomastigotes. The ex vivo evaluation of the trypanocidal activity of the FDA-approved drugs was carried out according to the methodology described above. Blood from parasite infected animals was obtained from intracardiac puncture and diluted with phosphate-buffered saline (PBS), pH 7.2, until a concentration of 2 × 10^6 blood trypomastigotes/mL was obtained. From this, 195 µL of blood/well was placed in a 96-well plate and incubated at 4 °C for 24 h with 5 µL of each drug tested at different concentrations (5 µg/mL to […]). […] After incubation, live parasites were counted in a Neubauer chamber and the IC50 was calculated. Three independent experiments by triplicate were performed.

[3] = system: T. cruzi epimastigote (INC-5 strain); assay: in vitro evaluation against epimastigotes, INC-5 strain (resazurin); assay type: cell-based; conditions: Trypanosoma cruzi, 48 h at 28 °C
From the text: (§3) The high-priority hit drugs were subjected to experimental validation in vitro, ex vivo, and in vivo, together with a cytotoxicity assay. Ninoa and INC-5 strains of T. cruzi were used in this study. […] In vitro evaluation of different FDA-approved drugs against Trypanosoma cruzi epimastigotes. The epimastigote stage of Ninoa and INC5 strains of T. cruzi were used to evaluated the in vitro trypanocidal activity of different FDA-approved drugs. Both strains were maintained in liver infusion tryptose (LIT) medium, supplemented with 10% fetal bovine serum (FBS) and 0.1% penicillin–streptomycin. They were preserved by transferring 1 × 10^6 parasites/mL into a new culture medium every week. […] All compounds were initially prepared at 10 mg/mL, using dimethyl sulfoxide (DMSO) as diluent. Serial dilutions were performed using complemented LIT medium until concentrations of 100 to 0.46 µg/mL of each drug were obtained. […] After the incubation period, 20 µL of 2.5 mM resazurin solution were added to each well and incubated for 3 h. All assays were carried out in triplicate.

[4] = system: T. cruzi epimastigote (Ninoa strain); assay: in vitro evaluation against epimastigotes, Ninoa strain (resazurin); assay type: cell-based; conditions: Trypanosoma cruzi, 48 h at 28 °C
From the text: as §3

[5] = system: T. cruzi blood trypomastigote (Ninoa strain); assay: ex vivo evaluation against blood trypomastigotes, Ninoa strain; assay type: cell-based; conditions: Trypanosoma cruzi, 24 h at 4 °C
From the text: as §1, §2

[6] = system: T. cruzi INC-5 strain; assay: in vivo short-term trypanocidal activity (parasitemia) in infected CD1 mice, INC-5 strain; parameters: species or system Trypanosoma cruzi in CD1 mice; conditions: for Parasitemia inhibition percentage over the time, 2 horas INC-5 / Parasitemia inhibition percentage over the time, 4 horas INC-5 / Parasitemia inhibition percentage over the time, 6 horas INC-5: 100 mg/kg oral; for parasitemia inhibition: mice infected with INC-5 strain, single oral dose 100 mg/kg, eight hours after administration
Protocol: (§4) Parasitemia was monitored at 2, 4, 6, and 8 h after administration (see Figure 2).
(§5) CD1 strain mice, 6–8 weeks old, were used to maintain Ninoa and INC-5 strains of T. cruzi. Animals were given by the University of Science and Arts of Chiapas. To maintain the strains, animals were intraperitoneally inoculated every 14 days with 1 × 10^5 blood trypomastigote, obtained from parasite-infected mice. Parasitemia was monitored every three days by the Pizzi method. For this, 5 µL of blood from the caudal vein of infected mice were deposited on a slide and evenly distributed with an 18 × 18 mm coverslip. Parasite counting was performed by observing 15 microscopic fields using a 40 × objective lens. For the in vivo short term evaluation of the trypanocidal activity of the FDA-approved drugs, six groups of six CD1 mice each with homogeneous weight and parasitemia were used.
(§6) In vivo short-term evaluation of the trypanocidal activity of the FDA-approved drugs. Six groups of six CD1 female mice were infected with blood trypomastigotes of Ninoa and INC-5 strains following the methodology previously described in Romanha et al. and in Díaz-Chiguer et al.. At day 13 post-infection, when the infected mice reached an average of 5 × 10^6 parasites/mL, a single dose of the FDA-approved drugs at 100 mg/kg body weight was orally administered. Parasitemia was monitored following the Pizzi method at 2, 4, 6, and 8 h post-treatment […] using mineral oil as a vehicle. […] Mice examination was performed as stated in the Norma Official Mexicana (NOM-062-Z00-1999), published on August 2009.

[7] = system: T. cruzi Ninoa strain; assay: in vivo short-term trypanocidal activity (parasitemia) in infected CD1 mice, Ninoa strain; parameters: species or system Trypanosoma cruzi in CD1 mice; conditions: for Parasitemia inhibition percentage over the time, 2 horas Ninoa / Parasitemia inhibition percentage over the time, 4 horas Ninoa / Parasitemia inhibition percentage over the time, 6 horas Ninoa: 100 mg/kg oral; for parasitemia inhibition: mice infected with Ninoa strain, single oral dose 100 mg/kg, eight hours after administration
Protocol: as §4, §5, §6

[8] = 6 horas (first column so headed)
[9] = 6 horas (second, last column so headed)

## O=C(O)P(=O)(O)O [Foscarnet]
[1]
  Trypan. Activity: ++

## Nc1nc2[nH]cc(CCc3ccc(C(=O)N[C@@H](CCC(=O)O)C(=O)O)cc3)c2c(=O)[nH]1 [Pemetrexed]
[1]
  Trypan. Activity: +

## CC(C)(C)NC(=O)[C@@H]1C[C@@H]2CCCC[C@@H]2CN1C[C@@H](O)[C@H](Cc1ccccc1)NC(=O)[C@H](CC(N)=O)NC(=O)c1ccc2ccccc2n1 [Saquinavir]
[1]
  Trypan. Activity: ++

## COc1cccc2c1C(=O)c1c(O)c3c(c(O)c1C2=O)C[C@@](O)(C(C)=O)C[C@@H]3O[C@H]1C[C@H](N)[C@H](O)[C@H](C)O1 [Aunomycin]
[1]
  Trypan. Activity: +

## CC(=O)[C@H]1CC[C@H]2[C@@H]3CCC4=CC(=O)CC[C@]4(C)[C@H]3CC[C@]12C [Progesterone]
[1]
  Trypan. Activity: +

## Cc1ccc(-c2cc(C(F)(F)F)nn2-c2ccc(S(N)(=O)=O)cc2)cc1 [Celecoxib]
[2]
  IC50: > 100 µM
[3]
  IC50: > 400 µM
[4]
  IC50: > 400 µM
[5]
  IC50: > 100 µM

## COc1cc(Cc2cnc(N)nc2N)cc(OC)c1OC [Trimethoprim]
[1]
  Trypan. Activity: ++

## CC1CS(=O)(=O)CCN1/N=C/c1ccc([N+](=O)[O-])o1 (stereo not shown) [Nifurtimox]
[6]
  Parasitemia inhibition percentage over the time, 2 horas INC-5: 100
  Parasitemia inhibition percentage over the time, 4 horas INC-5: 66.6
  parasitemia inhibition: 72.3%
[6]; [8]
  Parasitemia inhibition percentage over the time, 6 horas INC-5: 55.5
[6]; [9]
  Parasitemia inhibition percentage over the time, 6 horas INC-5: 27.7
[7]
  Parasitemia inhibition percentage over the time, 2 horas Ninoa: 100
  Parasitemia inhibition percentage over the time, 4 horas Ninoa: 50
  parasitemia inhibition: 77.8%
[7]; [8]
  Parasitemia inhibition percentage over the time, 6 horas Ninoa: 27.0
[7]; [9]
  Parasitemia inhibition percentage over the time, 6 horas Ninoa: 22.2
[2]
  IC50: 115.2 ± 0.17 µM
[3]
  IC50: 6.47 ± 0.42 µM
[4]
  IC50: 7.09 ± 0.12 µM
[5]
  IC50: 167.1 ± 0.03 µM

## O=C(O)c1ccccc1 [Benzoic acid]
[1]
  Trypan. Activity: ++

## N[C@@H](CCC(=O)N[C@@H](CS)C(=O)NCC(=O)O)C(=O)O [Glutathione]
[2]
  IC50: > 100 µM
[3]
  IC50: > 400 µM
[4]
  IC50: > 400 µM
[5]
  IC50: > 100 µM

## O=C(Cn1ccnc1[N+](=O)[O-])NCc1ccccc1 [Benznidazole]
[2]
  IC50: 130.6 ± 0.08 µM
[3]
  IC50: 19.9 ± 0.23 µM
[5]
  IC50: 156 ± 0.11 µM

## COc1ccc2cc([C@H](C)C(=O)O)ccc2c1 [Naproxen]
[6]
  Parasitemia inhibition percentage over the time, 2 horas INC-5: 100
  Parasitemia inhibition percentage over the time, 4 horas INC-5: 85.7
  parasitemia inhibition: 42.9%
[6]; [8]
  Parasitemia inhibition percentage over the time, 6 horas INC-5: 71.4
[6]; [9]
  Parasitemia inhibition percentage over the time, 6 horas INC-5: 57.1
[7]
  Parasitemia inhibition percentage over the time, 2 horas Ninoa: 100
  Parasitemia inhibition percentage over the time, 4 horas Ninoa: 71
  parasitemia inhibition: 85.8%
[7]; [8]
  Parasitemia inhibition percentage over the time, 6 horas Ninoa: 28.5
[7]; [9]
  Parasitemia inhibition percentage over the time, 6 horas Ninoa: 14.2
[2]
  IC50: 38.3 ± 0.06 µM
[3]
  IC50: > 400 µM
[4]
  IC50: > 400 µM
[5]
  IC50: 58.5 ± 0.07 µM

## CC12CC3CC(C)(C1)CC(N)(C3)C2 [Memantine]
[1]
  Trypan. Activity: ++

## Nc1nc2c(c(=O)[nH]1)N(C=O)C(CNc1ccc(C(=O)N[C@@H](CCC(=O)O)C(=O)O)cc1)CN2 (stereo partly shown) [Leucovorin]
[2]
  IC50: > 100 µM
[3]
  IC50: > 400 µM
[4]
  IC50: > 400 µM
[5]
  IC50: > 100 µM

## Nc1nc(=O)c2nc(CNc3ccc(C(=O)N[C@@H](CCC(=O)O)C(=O)O)cc3)cnc2[nH]1 [Folic acid]
[6]
  Parasitemia inhibition percentage over the time, 2 horas INC-5: 100
  Parasitemia inhibition percentage over the time, 4 horas INC-5: 50
  parasitemia inhibition: 66.7%
[6]; [8]
  Parasitemia inhibition percentage over the time, 6 horas INC-5: 33.3
[6]; [9]
  Parasitemia inhibition percentage over the time, 6 horas INC-5: 33.3
[7]
  Parasitemia inhibition percentage over the time, 2 horas Ninoa: 100
  Parasitemia inhibition percentage over the time, 4 horas Ninoa: 71
  parasitemia inhibition: 57.2%
[7]; [8]
  Parasitemia inhibition percentage over the time, 6 horas Ninoa: 42.8
[7]; [9]
  Parasitemia inhibition percentage over the time, 6 horas Ninoa: 42.8
[2]
  IC50: 21.5 ± 0.03 µM
[3]
  IC50: > 400 µM
[4]
  IC50: > 400 µM
[5]
  IC50: 28.1 ± 0.01 µM

## CC(=O)O[C@H]1C(=O)[C@@]2(C)[C@H]([C@H](OC(=O)c3ccccc3)[C@]3(O)C[C@H](OC(=O)[C@H](O)[C@@H](NC(=O)c4ccccc4)c4ccccc4)C(C)=C1C3(C)C)[C@]1(OC(C)=O)CO[C@@H]1C[C@@H]2O [Paclitaxel]
[1]
  Trypan. Activity: ++

## CC1=C(/C=C/C(C)=C/C=C/C(C)=C\C(=O)O)C(C)(C)CCC1 [Isotretinoin]
[1]
  Trypan. Activity: ++

## CC(=O)CCCCn1c(=O)c2c(ncn2C)n(C)c1=O [Pentoxifylline]
[1]
  Trypan. Activity: +
[2]
  IC50: > 100 µM
[3]
  IC50: > 400 µM
[4]
  IC50: > 400 µM
[5]
  IC50: > 100 µM

## CN(C)c1ccc(O)c2c1C[C@H]1C[C@H]3[C@H](N(C)C)C(O)=C(C(N)=O)C(=O)[C@@]3(O)C(O)=C1C2=O [Minocycline]
[1]
  Trypan. Activity: ++

## C=C[C@H]1C[N@@]2CC[C@H]1C[C@H]2[C@H](O)c1ccnc2ccc(OC)cc12 [Quinine]
[1]
  Trypan. Activity: ++

## CC(N)C12CC3CC(CC(C3)C1)C2 (stereo not shown) [Rimantadine]
[1]
  Trypan. Activity: ++

## CSc1ccc2c(c1)N(CCC1CCCCN1C)c1ccccc1S2 (stereo not shown) [Thioridazine]
[1]
  Trypan. Activity: ++

## Nc1nc(N)c2nc(-c3ccccc3)c(N)nc2n1 [Triamterene]
[1]
  Trypan. Activity: ++

## Cn1c(=O)c2[nH]cnc2n(C)c1=O [Theophylline]
[2]
  IC50: > 100 µM
[3]
  IC50: > 400 µM
[4]
  IC50: > 400 µM
[5]
  IC50: > 100 µM

## NC(=O)c1cccnc1 [Nicotinamide]
[1]
  Trypan. Activity: ++

## CN(C)CCCC1(c2ccc(F)cc2)OCc2cc(C#N)ccc21 (stereo not shown) [Citalopram]
[1]
  Trypan. Activity: ++

## Nc1nc2nc[nH]c2c(=S)[nH]1 [Tioguanine]
[1]
  Trypan. Activity: ++

## CC(=O)N[C@H]1[C@H]([C@H](O)[C@H](O)CO)OC(C(=O)O)=C[C@@H]1N=C(N)N [Zanamivir]
[1]
  Trypan. Activity: ++
